Columns and labels:
SK-MEL-5 = test: Growth inhibition of human SK-MEL-5 cells after 48 hrs by SRB assay; type: functional; settings: SK-MEL-5, 48 h
[1] = Growth inhibition of human SNB75 cells after 48 hrs by SRB assay; type: functional; settings: SNB-75, 48 h
[2] = Growth inhibition of human Hs 578T cells at 10 uM after 48 hrs by SRB assay; type: functional; settings: read-out: GI
SK-MEL-2 = test: Growth inhibition of human SK-MEL-2 cells after 48 hrs by SRB assay; type: functional; settings: SK-MEL-2, 48 h
NCI-H522 [3] = test: Growth inhibition of human NCI-H522 cells after 48 hrs by SRB assay; type: functional; settings: NCI-H522, 48 h
NCI-H460 = test: Growth inhibition of human NCI-H460 cells after 48 hrs by SRB assay; type: functional; settings: NCI-H460, 48 h
[4] = Growth inhibition of human LOXIMVI cells after 48 hrs by SRB assay; type: functional; settings: LOX IMVI
[5] = Growth inhibition of human HCT116 cells after 48 hrs by SRB assay; type: functional; settings: HCT-116, 48 h
[6] = Growth inhibition of human BT549 cells at 10 uM after 48 hrs by SRB assay; type: functional; settings: BT-549, 48 h, read-out: GI
[7] = molecular target: Cyclin-dependent kinase 2 (Homo sapiens) (UniProt P24941); test: Inhibition of CDK-2 (unknown origin) at 10 uM
NCI-H226 = test: Growth inhibition of human NCI-H226 cells at 10 uM after 48 hrs by SRB assay; type: functional; settings: NCI-H226, 48 h, read-out: GI
HT-29 = test: Growth inhibition of human HT-29 cells at 10 uM after 48 hrs by SRB assay; type: functional; settings: HT-29, 48 h, read-out: GI
[8] = Growth inhibition of human TK10 cells at 10 uM after 48 hrs by SRB assay; type: functional; settings: TK-10, 48 h, read-out: GI
CCRF-CEM = test: Growth inhibition of human CCRF-CEM cells after 48 hrs by SRB assay; type: functional
[9] = Growth inhibition of human BT549 cells after 48 hrs by SRB assay; type: functional; settings: BT-549, 48 h
NCI-H23 = test: Growth inhibition of human NCI-H23 cells after 48 hrs by SRB assay; type: functional; settings: NCI-H23, 48 h
KM12 = test: Growth inhibition of human KM12 cells after 48 hrs by SRB assay; type: functional; settings: KM12, 48 h
[10] = Growth inhibition of human SKOV3 cells at 10 uM after 48 hrs by SRB assay; type: functional; settings: SK-OV-3, 48 h, read-out: GI
U-251 = test: Growth inhibition of human U251 cells at 10 uM after 48 hrs by SRB assay; type: functional; settings: U-251, 48 h, read-out: GI
[11] = Growth inhibition of human LOXIMVI cells at 10 uM after 48 hrs by SRB assay; type: functional; settings: LOX IMVI, read-out: GI
[12] = Growth inhibition of human UACC257 cells after 48 hrs by SRB assay; type: functional; settings: UACC-257, 48 h
[13] = Growth inhibition of human OVCAR4 cells after 48 hrs by SRB assay; type: functional; settings: OVCAR-4, 48 h
[14] = Growth inhibition of human RPMI8226 cells after 48 hrs by SRB assay; type: functional; settings: RPMI-8226, 48 h
[15] = Growth inhibition of human DU145 cells after 48 hrs by SRB assay; type: functional; settings: DU-145, 48 h
[16] = Growth inhibition of human SW620 cells at 10 uM after 48 hrs by SRB assay; type: functional; settings: SW-620, 48 h, read-out: GI
[17] = Growth inhibition of human HCT15 cells after 48 hrs by SRB assay; type: functional; settings: HCT-15, 48 h
[18] = Growth inhibition of human Hs 578T cells after 48 hrs by SRB assay; type: functional
[19] = Growth inhibition of human MOLT4 cells after 48 hrs by SRB assay; type: functional; settings: MOLT-4, 48 h
[20] = Growth inhibition of human HCT116 cells at 10 uM after 48 hrs by SRB assay; type: functional; settings: HCT-116, 48 h, read-out: GI
[21] = Growth inhibition of human HOP92 cells at 10 uM after 48 hrs by SRB assay; type: functional; settings: HOP-92, 48 h, read-out: GI
NCI-H522 [22] = test: Growth inhibition of human NCI-H522 cells at 10 uM after 48 hrs by SRB assay; type: functional; settings: NCI-H522, 48 h, read-out: GI
[23] = Growth inhibition of human SW620 cells after 48 hrs by SRB assay; type: functional; settings: SW-620, 48 h
T47D = test: Growth inhibition of human T47D cells after 48 hrs by SRB assay; type: functional
[24] = Growth inhibition of human OVCAR3 cells at 10 uM after 48 hrs by SRB assay; type: functional; settings: OVCAR-3, 48 h, read-out: GI
[25] = Growth inhibition of human COLO205 cells at 10 uM after 48 hrs by SRB assay; type: functional; settings: COLO 205, 48 h, read-out: GI
[26] = Growth inhibition of human SF295 cells at 10 uM after 48 hrs by SRB assay; type: functional; settings: SF-295, 48 h, read-out: GI
[27] = Growth inhibition of human SF268 cells at 10 uM after 48 hrs by SRB assay; type: functional; settings: SF-268, 48 h, read-out: GI
[28] = Growth inhibition of human OVCAR5 cells at 10 uM after 48 hrs by SRB assay; type: functional; settings: OVCAR-5, 48 h, read-out: GI
[29] = read-out: LC50 (the source's name)

Which results are given for `COc1cccc(Nc2nccc(Nc3ccc4[nH]ncc4c3)n2)c1`?
GI50 (SK-MEL-5): 1.22 µM; TGI (SK-MEL-5): 2.47 µM; CC50 (SK-MEL-5; [29]): 5.01 µM; GI50 [1]: 1.39 µM; LC50 [1]: 7.08 µM; TGI [1]: 3.13 µM; inhibition of growth at 10 µM [2]: 76%; GI50 (SK-MEL-2): 1.62 µM; LC50 (SK-MEL-2): 6.59 µM; TGI (SK-MEL-2): 3.27 µM; GI50 (NCI-H522 [3]): 1.48 µM; LC50 (NCI-H522 [3]): 5.54 µM; TGI (NCI-H522 [3]): 2.86 µM; GI50 (NCI-H460): 1.64 µM; LC50 (50% lethal concentration) (NCI-H460): 11.5 µM; TGI (NCI-H460): 4.17 µM; GI50 [4]: 1.44 µM; LC50 [4]: 7.07 µM; TGI [4]: 3.19 µM; GI50 [5]: 1.59 µM; TGI [5]: 3.23 µM; CC50 [5, 29]: 6.54 µM; inhibition of growth at 10 µM [6]: 116%; inhibition [7]: 76%; inhibition of growth at 10 µM (NCI-H226): 117%; inhibition of growth at 10 µM (HT-29): 158%; inhibition of growth at 10 µM [8]: 178%; GI50 (CCRF-CEM): 0.9 µM; LC50 (concentration for 50% net cell kill) (CCRF-CEM): 21.7 µM; TGI (CCRF-CEM): 4.56 µM; GI50 [9]: 1.67 µM; TGI [9]: 3.71 µM; CC50 [9, 29]: 8.23 µM; GI50 (NCI-H23): 1.69 µM; TGI (NCI-H23): 3.83 µM; CC50 (NCI-H23; [29]): 8.7 µM; GI50 (KM12): 1.64 µM; TGI (KM12): 4.81 µM; CC50 (KM12; [29]): 17.4 µM; inhibition of growth at 10 µM [10]: 85%; inhibition of growth at 10 µM (U-251): 194%; inhibition of growth at 10 µM [11]: 167%; GI50 [12]: 2.04 µM; TGI [12]: 3.73 µM; CC50 [12, 29]: 6.79 µM; GI50 [13]: 1.46 µM; TGI [13]: 4.03 µM; CC50 [13, 29]: 12.5 µM; GI50 [14]: 1.36 µM; LC50 [14]: 50.1 µM; TGI [14]: 4.19 µM; GI50 [15]: 1.3 µM; LC50 [15]: 6.24 µM; TGI [15]: 2.85 µM; inhibition of growth at 10 µM [16]: 169%; GI50 [17]: 1.21 µM; LC50 [17]: 7.01 µM; TGI [17]: 2.91 µM; GI50 [18]: 1.79 µM; TGI [18]: 4.61 µM; CC50 [18, 29]: 15.2 µM; GI50 [19]: 0.52 µM; LC50 [19]: 28.4 µM; TGI [19]: 2.83 µM; inhibition of growth at 10 µM [20]: 187%; inhibition of growth at 10 µM [21]: 111%; inhibition of growth at 10 µM (NCI-H522 [22]): 168%; GI50 [23]: 2.41 µM; TGI [23]: 6.13 µM; CC50 [23, 29]: 21 µM; GI50 (T47D): 1.05 µM; LC50 (concentration killing 50% of cells) (T47D): 9.23 µM; TGI (T47D): 3.12 µM; inhibition of growth at 10 µM [24]: 161%; inhibition of growth at 10 µM [25]: 188%; inhibition of growth at 10 µM [26]: 84%; inhibition of growth at 10 µM [27]: 74%; inhibition of growth at 10 µM [28]: 67%
